Measurements as given in patent US10765693B2, “Polymorphic compounds and uses thereof” (Astrocyte Pharmaceuticals, Inc., priority 2018, dated 2020).

Key:
Format in all cases: physicochemical
[1] = Dynamic Vapour Sorption (DVS) analysis; settings: for moisture gain observed during the moisture sorption: adsorption cycle 5 to 95% RH; for crystalline form after the DVS analysis (XRPD before/after): sample exposed up to 95% RH and down to 5% RH
Method: Dynamic Vapour Sorption (DVS) analysis was carried out using a TA Instruments Q5000 Dynamic Vapor Sorption analyzer. The instrument was calibrated with standard weights and a sodium bromide standard for humidity. Approximately 20 mg of sample was loaded into a metal-coated quartz pan for analysis. The sample was analyzed at 25° C. with a maximum equilibration time of one hour in 10% relative humidity (RH) steps from 5 to 95% RH (adsorption cycle) and from 95 to 5% RH (desorption cycle). The movement from one step to the next occurred either after satisfying the equilibrium criterion of 0.01% weight change or, if the equilibrium criterion was not met, after one hour. The percent weight change values were calculated using Microsoft Excel®. The temperature for the DVS analysis can impact the outcome of the results.

[2] = Stability when milled in the presence of water or stirred (slurried) in water; settings: milled with water; stirred in water between room temperature and 60° C.
Method: Milling was performed using a Retsch Mill. About 20 mg of material was placed into a plastic grinding cup followed by 10 μL of water and a stainless-steel ball. The sample was then milled at 100% power for 20 minutes.
To a plastic grinding cup was added 18.4 mg of Compound A and 10 μL of water. A stainless-steel ball was added. The sample was then milled on a Retsch mill at 100% power for 20 minutes at room temperature.
To a 20 mL glass vial was added 200.0 mg of Compound A and 3.0 mL of water. A magnetic stir bar was added and the vial was capped. The vial was placed on a heating/stirring plate and the slurry was stirred magnetically for 7 days at ambient temperature. The vial was centrifuged for 10 minutes and the mother liquor was decanted. A dry air purge was directed into the vial for 10 minutes to dry the solid. The vial was then placed in a room temperature vacuum desiccator for 2 hours.
To a 20 mL glass vial was added 200.0 mg of Compound A and 3.0 mL of water. A magnetic stir bar was added and the vial was capped. The vial was placed on a heating/stirring plate set at 60° C. and the slurry was stirred magnetically for 3 days. The vial was centrifuged for 10 minutes and the mother liquor was decanted. A dry air purge was directed into the vial for 10 minutes to dry the solid. The vial was then placed in a room temperature vacuum desiccator for 2 hours.

[3] = Relative stability of Form A and Form B slurried in organic/water solvent systems of differing water activity; settings: mixture of the two forms slurried
Source text: If the solvent system has higher than or equal water activity of 0.72, and the two crystalline forms are mixed, the mixture converts to Form A. The solvent systems can be mixture of any organic solvents and organic solvents containing water.
The solvent systems can be mixture of any organic solvents and organic solvents containing water.

[4] = DVS, 25° C., desorption cycle 95 to 5% RH

| SMILES | stability under various humidity conditions ([1]; DVS, 5 to 95% RH) | hygroscopicity based on the DVS data ([1]; DVS, 25° C., 5 to 95% RH) | moisture gain observed during the moisture sorption ([1]; DVS, 25° C.) | moisture loss observed during the desorption cycle [1, 4] | crystalline form after the DVS analysis (XRPD before/after) [1] | stability when milled in the presence of water or stirred in water [2] | water activity of solvent system at which this form is the more stable of Forms A and B [3] | moisture loss during the desorption cycle (in words) [1, 4] |
| --- | --- | --- | --- | --- | --- | --- | --- | --- |
| CSc1nc(N)c2ncn([C@H]3[C@H](O)[C@H](O)[C@]4(CO)C[C@H]34)c2n1 [Form A of compound A] | stable under various humidity conditions | moderately hygroscopic | approximately 9.3% | about 2% | remained unchanged | stable | ≥ 0.72 |  |
| CSc1nc(N)c2ncn([C@H]3[C@H](O)[C@H](O)[C@]4(CO)C[C@H]34)c2n1 [Form B of compound A] |  | moderately hygroscopic | approximately 6.4% |  | remained unchanged |  | less than or equal to 0.63 | lost all of the moisture gain |
